Test results as given in patent US12583870B2, “Azaheteroaryl compound and application thereof” (SHANGHAI BLUERAY BIOPHARMA CO., LTD., priority 2019, dated 2026).

Tests used:
[1] = biological target: T1, EED protein (His6-tagged full-length) binding to H3K27me3 polypeptide (Homo sapiens, UniProt O75530); assay: AlphaScreen evaluation of blocking the binding of EED to H3K27Me3; conditions: EED 60 nM, biotinylated H3K27me3 75 nM, 30 minutes incubation
T1 construct: His6-tagged full-length EED protein (441 amino acids)
T1 sequence (O75530 whole entry): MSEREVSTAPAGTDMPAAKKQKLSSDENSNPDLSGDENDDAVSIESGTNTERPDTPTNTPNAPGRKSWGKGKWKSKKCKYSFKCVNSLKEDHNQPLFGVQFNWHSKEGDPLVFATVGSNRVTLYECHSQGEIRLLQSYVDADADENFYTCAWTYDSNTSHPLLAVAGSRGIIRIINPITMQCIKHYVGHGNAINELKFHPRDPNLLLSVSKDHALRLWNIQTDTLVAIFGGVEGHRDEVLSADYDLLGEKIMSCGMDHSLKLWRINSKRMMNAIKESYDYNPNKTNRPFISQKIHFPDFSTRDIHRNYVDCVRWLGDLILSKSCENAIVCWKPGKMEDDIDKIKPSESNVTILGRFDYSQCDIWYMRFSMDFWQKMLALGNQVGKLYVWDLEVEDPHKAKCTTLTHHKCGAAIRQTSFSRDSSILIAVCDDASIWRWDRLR
Summary of the method: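 His6-tagged full-length EED (60 nM working stock) and biotin-H3K27me3 peptide aa 19–33 (75 nM working stock) incubated 30 min RT with 9-point 3-fold compound series in 25 mM HEPES pH 8.0, 50 mM NaCl, 0.015% Tween 20, 0.5% BSA. Ni-chelate acceptor and streptavidin donor beads (5 μg/mL each), 1 h dark; IC50 from dose-response fit. Biotin-(His)6 counterscreen checked signal interference.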

[2] = tested on: trimethylation level of histone H3K27 in G401 cells; assay: ELISA (H3K27 trimethylation) analysis in G401 cells; type: cell-based; conditions: Homo sapiens, G-401, 72 hours, H3K27me3 standardized to H3
Summary of the method: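 Cells exposed 72 h to 10-point 3-fold dilutions, top 10 μM, 0.5% final DMSO. Acid-extracted histones assayed by ELISA (ECL) for H3K27me3, normalized to total H3 and to DMSO control; IC50 from dose-response fit.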

KARPAS-422 cells = assay: Cell proliferation analysis, KARPAS-422, 13 days, CellTiter-Glo; type: cell-based; conditions: Homo sapiens, 312 h
Summary of the method: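 KARPAS-422 cells were treated with PRC2 inhibitors over 9 three-fold dilutions from 10 μM top (0.5% DMSO, duplicates) in RPMI-1640 with 15% FBS at 37 °C. Every 3–4 days cells were counted and reseeded at 1×10^4/well with fresh compound. Viability was read by CellTiter-Glo luminescence on day 13.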

Row | IC50 [1] [µM] | IC50 [2] [µM] | IC50 (KARPAS-422 cells) [µM] | Compound
1 | 0.0035 | 0.0024 | 0.0017 | Fc1ccc2c(c1CNc1ncc(-c3cccn4cc(C(F)(F)F)nc34)c3nncn13)CCO2 [N-((5-fluoro-2,3-dihydrobenzofuran-4-yl)methyl)-8-(2-(trifluoromethyl)imidazo[1,2-a]pyridin-8-yl)-[1,2,4]triazolo[4,3-c]pyrimidin-5-amine]
2 | 0.0141 | 0.003 | 0.0024 | Cc1cn2cccc(-c3cnc(NCc4c(F)ccc5c4CCO5)n4cnnc34)c2n1 [N-((5-fluoro-2,3-dihydrobenzofuran-4-yl)methyl)-8-(2-methylimidazo[1,2-a]pyridin-8-yl)-[1,2,4]triazolo[4,3-c]pyrimidin-5-amine]
3 | 0.0046 | 0.0016 | 0.0014 | Cc1cnc2c(-c3cnc(NCc4c(F)ccc5c4CCO5)n4cnnc34)cccn12 [N-((5-fluoro-2,3-dihydrobenzofuran-4-yl)methyl)-8-(3-methylimidazo[1,2-a]pyridin-8-yl)-[1,2,4]triazolo[4,3-c]pyrimidin-5-amine]
4 | 0.0058 | 0.0013 | 0.0013 | Cc1ccc(-c2cnc(NCc3c(F)ccc4c3CCO4)n3cnnc23)c2nccn12 [N-((5-fluoro-2,3-dihydrobenzofuran-4-yl)methyl)-8-(5-methylimidazo[1,2-a]pyridin-8-yl)-[1,2,4]triazolo[4,3-c]pyrimidin-5-amine]
5 | 0.0023 | 0.0171 | 0.0095 | Fc1cc(-c2cnc(NCc3c(F)ccc4c3CCO4)n3cnnc23)c2nc(C(F)(F)F)cn2c1 [N-((5-fluoro-2,3-dihydrobenzofuran-4-yl)methyl)-8-(6-fluoro-2-(trifluoromethyl)imidazo[1,2-a]pyridin-8-yl)-[11,2,4]triazolo[4,3-c]pyrimidin-5-amine]
6 | 0.003 | 0.0035 | 0.0013 | Cc1cn2cc(F)cc(-c3cnc(NCc4c(F)ccc5c4CCO5)n4cnnc34)c2n1 [N-((5-fluoro-2,3-dihydrobenzofuran-4-yl)methyl)-8-(6-fluoro-2-methylimidazo[1,2-a]pyridin-8-yl)-[1,2,4]triazolo[4,3-c]pyrimidin-5-amine]
7 | 0.0049 | 0.0029 | 0.002 | Fc1cc(-c2cnc(NCc3c(F)ccc4c3CCO4)n3cnnc23)c2nccn2c1 [N-((5-fluoro-2,3-dihydrobenzofuran-4-yl)methyl)-8-(6-fluoroimidazo[1,2-a]pyridin-8-yl)-[1,2,4]triazolo[4,3-c]pyrimidin-5-amine]
8 | 0.0243 | 0.014 | 0.0116 | Cc1cc(-c2cnc(NCc3c(F)ccc4c3CCO4)n3cnnc23)c2nccn2c1 [N-((5-fluoro-2,3-dihydrobenzofuran-4-yl)methyl)-8-(6-methylimidazo[1,2-a]pyridin-8-yl)-[1,2,4]triazolo[4,3-c]pyrimidin-5-amine]
9 | 0.0044 | 0.0008 | 0.0015 | Fc1ccc2c(c1CNc1ncc(-c3cccn4ccnc34)c3nncn13)CCO2 [N-((5-fluoro-2,3-dihydrobenzofuran-4-yl)methyl)-8-(imidazo[1,2-a]pyridin-8-yl)-[1,2,4]triazolo[4,3-c]pyrimidin-5-amine]

More lines, now with the values behind:

Row | Compound | IC50 [1] [µM] | IC50 [2] [µM] | IC50 (KARPAS-422 cells) [µM]
10 | COC(=O)Cc1cnc2c(-c3cnc(NCc4c(F)ccc5c4CCO5)n4cnnc34)ccc(C)n12 [Methyl 2-(8-(5-(((5-fluoro-2,3-dihydrobenzofuran-4-yl)methyl)amino)-[1,2,4]triazolo[4,3-c]pyrimidin-8-yl)-5-methylimidazo[1,2-a]pyridin-3-yl)acetate] | 0.0062 | 0.0038 | 0.001
11 | COC(=O)c1ccc(-c2cnc(NCc3c(F)ccc4c3CCO4)n3cnnc23)c2nccn12 [Methyl 8-(5-(((5-fluoro-2,3-dihydrobenzofuran-4-yl)methyl)amino)-[1,2,4]triazolo[4,3-c]pyrimidin-8-yl)imidazo[1,2-a]pyridine-5-carboxylate] | 0.008 | 0.0035 | 0.0051
12 | Cn1cnc2c(-c3cnc(NCc4c(F)ccc5c4CCO5)n4cnnc34)cccc21 [N-((5-fluoro-2,3-dihydrobenzofuran-4-yl)methyl)-8-(1-methyl-1H-benzo[d]imidazol-4-yl)-[1,2,4]triazolo[4,3-c]pyrimidin-5-amine] | 0.0086 | 0.0013 | 0.0016
13 | Cc1nc2c(-c3cnc(NCc4c(F)ccc5c4CCO5)n4cnnc34)cccc2o1 [N-((5-fluoro-2,3-dihydrobenzofuran-4-yl)methyl)-8-(2-methylbenzo[d]oxazol-4-yl)-[1,2,4]triazolo[4,3-c]pyrimidin-5-amine] | 0.0092 | 0.0078 | 0.0042
14 | Cc1ccc(-c2cnc(NCc3c(F)ccc4c3CCO4)n3cnnc23)c2ncc(C(C)C)n12 [N-((5-fluoro-2,3-dihydrobenzofuran-4-yl)methyl)-8-(3-isopropyl-5-methylimidazo[1,2-a]pyridin-8-yl)-[1,2,4]triazolo[4,3-c]pyrimidin-5-amine] | 0.0028 | 0.0007 | 0.001
15 | Cc1cnc2c(-c3cnc(NCc4c(F)ccc5c4CCO5)n4cnnc34)cc(F)cn12 [N-((5-fluoro-2,3-dihydrobenzofuran-4-yl)methyl)-8-(6-fluoro-3-methylimidazo[1,2-a]pyridin-8-yl)-[1,2,4]triazolo[4,3-c]pyrimidin-5-amine] | 0.0074 | 0.0057 | 0.004
16 | Fc1ccc2c(c1CNc1ncc(-c3ccc4nccn4c3)c3nncn13)CCO2 [N-((5-fluoro-2,3-dihydrobenzofuran-4-yl)methyl)-8-(imidazo[1,2-a]pyridin-6-yl)-[1,2,4]triazolo[4,3-c]pyrimidin-5-amine] | 0.0424 | 0.058 | 0.0941
17 | Fc1ccc2c(c1CNc1ncc(-c3ccn4ccnc4c3)c3nncn13)CCO2 [N-((5-fluoro-2,3-dihydrobenzofuran-4-yl)methyl)-8-(imidazo[1,2-a]pyridin-7-yl)-[1,2,4]triazolo[4,3-c]pyrimidin-5-amine] | 0.015 | 0.0056 | 0.0165
18 | Fc1ccc2c(c1CNc1ncc(-c3ccc4ccnn4c3)c3nncn13)CCO2 [N-((5-fluoro-2,3-dihydrobenzofuran-4-yl)methyl)-8-(pyrazolo[1,5-a]pyridin-6-yl)-[1,2,4]triazolo[4,3-c]pyrimidin-5-amine] | 0.0043 | 0.0061 | 0.0154
19 | Fc1ccc2c(c1CNc1ncc(-c3cnn4cccnc34)c3nncn13)CCO2 [N-((5-fluoro-2,3-dihydrobenzofuran-4-yl)methyl)-8-(pyrazolo[1,5-a]pyrimidin-3-yl)-[1,2,4]triazolo[4,3-c]pyrimidin-5-amine] | 0.0021 | 0.0104 | 0.0097
20 | Fc1ccc2c(c1CNc1ncc(-c3cnc4ccnn4c3)c3nncn13)CCO2 [N-((5-fluoro-2,3-dihydrobenzofuran-4-yl)methyl)-8-(pyrazolo[1,5-a]pyrimidin-6-yl)-[1,2,4]triazolo[4,3-c]pyrimidin-5-amine] | 0.0057 | 0.018 | 0.0183
21 | Fc1ccc2c(c1CNc1ncc(-c3cccn4ccnc34)c3nncn13)[C@H]1C[C@H]1O2 [N-(((1aR,6bR)-5-fluoro-1a,6b-dihydro-1H-cyclopropa[b]benzofuran-6-yl)methyl)-8-(imidazo[1,2-a]pyridin-8-yl)-[1,2,4]triazolo[4,3-c]pyrimidin-5-amine] | 0.0035 | 0.001 | 0.0006
